Legend:
[1] = Storage stability at 55° C. of dried lot 14 solid with added water or ethanol (Example 3, Table 3); assay type: physicochemical; settings: 55° C. for a short period such as 24 hours
Source text: Three values are given in the tables for each azadirachtin level: The amount (in grams) of azadirachtin A is given before the slash. The amount of azadirachtin B (in grams) is given after the slash. The total azadirachtin amount is given in parentheses. Ka, Kb, and Kt refer to the first order decomposition rate constants (with units of 1/day) for azadirachtin A, azadirachtin B, and total azadirachtin, respectively.
Dry solid azadirachtin was obtained by drying a solid azadirachtin sample from Lot 14 (014) in an oven at 55° C. for 24 hours in an unsealed vessel until the volatile content of the solid was less than 0.5%. The dried sample was then split into 6 subsamples. One dry subsample (014D) was used without further treatment. A second subsample (014W1) received 1% by weight of H2 O. A third subsample (014W4) received 4% by weight H2 O. Subsamples 4, 5 and 6 received 1, 3, and 5% by weight of ethanol, respectively and were designated 014E1, 014E3, and 014E5. The subsamples were placed in multiple tightly sealed vials at 55° C. Individual vials were removed periodically to assay for azadirachtin.

[2] = tested on: various insect, mite, nematode, etc. orders; settings: cited from earlier work

## C/C=C(\C)C(=O)O[C@H]1C[C@@H](OC(C)=O)[C@@]2(C(=O)OC)CO[C@H]3[C@@H](O)[C@@](C)([C@]45O[C@@]4(C)[C@H]4C[C@@H]5O[C@@H]5OC=C[C@@]54O)[C@H]4[C@]1(CO[C@]4(O)C(=O)OC)[C@@H]32 [azadirachtin]
[1]
  effect of heating upon azadirachtin stability: little or no effect upon azadirachtin stability
[2]
  biological activity (in words): feeding inhibition and growth disruption
